According to US5326784A, “Cycloalkylalkylamines which are sigma-receptor ligands and their application in therapy” (Institut de Recherche Jouveinal, priority 1992, dated 1994):
Where a name gives a salt, the structure may show the parent alone. Read-outs that look alike come from different tables or passages of the source.

Assays:
sigma receptors [1] = target: T1, sigma receptors (Rattus norvegicus, UniProt Q9R0C9); experiment: Sigma binding, SKF 10,047/rat brain membranes (Table 1.B); conditions: rat brain membranes
T1 construct: (SKF 10,047/rat brain membranes); from tissue; host or cells: rat brain membranes
Description: (§1) Tests of binding to phencyclidine and dopamine D2 receptors were carried out to study the possible undesirable interactions of the compounds of the invention with these receptors. The ligands used are [^3 H]-TCP for phencyclidine and [^3 H]spiroperidol for dopamine.
(§2) The binding experiments are carried out with the sigma ligands (+)-[^3 H]-SKF10,047 and [^3 H]-TCP according to the technique described by Largent B. L. et al. in J. Pharmacol. Exp. Ther. 238, 1986, p 739-748, the principle of which is to place in competition the respective affinities of the product under study and that of a radioactive characteristic ligand for sigma receptors.
(§3) The technique consists in incubating solutions of suitable concentrations of the test products with standard samples of membranes loaded with the labeled ligand, and then in determining the radioactivity of the solution after filtration.
(§4) The results are processed so as to calculate the IC50 of the product under study, which represents the nanomolar concentration of solution capable of inhibiting 50% of the binding of the tritiated ligand to the sigma receptors of the membranes used.
(§5) The SKF 10,047 binding tests are performed with guinea pig or rat brain membranes, those with DTG and TCP are performed with rat brain membranes; the D2 binding tests are performed with guinea pig brain membranes.

[2] = system: dopaminergic D2 receptors; conditions: state of the art; cited from earlier work
[3] = system: dopaminergic (D2) receptors; conditions: state of the art; cited from earlier work
[4] = system: convulsions induced by electric shocks in rats; experiment: Protection against convulsions induced by electric shocks in rats; assay type: in vivo, rat (male Sprague Dawley); conditions: sc, 0.5 h; rat; subcutaneous; shock 30 minutes after injection; protection in 50% of the animals
Description: (§6) Moreover, "in vivo" tests enabled the capacity of the compounds of the invention (I) to inhibit convulsions induced by electric shocks in rats, and also their capacity to inhibit gastroduodenal ulcers caused by administration of cysteamine, to be detected.
a) Convulsions in rats: electric shock
The psychotropic properties of the compounds (I) were determined by the protection against convulsions induced by electric shocks in rats.
The emission of an electric shock causes a convulsive state in the animal, characterized by the convulsive extension of front and rear legs.
In practice, the study is carried out on groups of 10 male Sprague Dawley rats weighing approximately 100 grams, to which the product under study is administered subcutaneously in aqueous solution on the basis of 0.5 ml per 100 grams of the animal's body weight.
An electric shock is then produced 30 minutes after the injection by means of a UGO BASILE ECT UNIT 7801 electric shock apparatus (APELEX): frequency 50 cps/sec, pulse width 0.6 ms, shock duration 1 sec, intensity 90 mA. […] Each animal then receives a score, which is equal to 1 for the presence of tonic convulsions and zero for the absence of tonic convulsions. […] The results are compared statistically between the control group and the treated group by the test of Fisher R. A. and Yates F. (Biometrika, 1948, 35-149) and the ED50 (dose of the test compound giving rise to protection in 50% of the animals) is calculated by the method of Litchfield J. T. and Wilcoxon F. (J. Pharmacol. Exp. Therap., 1949, 96-99).

[5] = system: cysteamine-induced ulcers; experiment: Inhibition of cysteamine-induced gastroduodenal ulcers in rats; assay type: in vivo, rat (male Sprague Dawley); conditions: rat, 50% inhibition of ulceration, read-out: Cysteamine ulcer ED50
Source text: as §6
b) Cysteamine-induced ulcer
The activity of the compounds of the invention with respect to the gastrointestinal tract was shown in rats by their capacity to inhibit gastroduodenal ulcers caused by administration of cysteamine. (Robert and al., Digestion, 1974, 11, 199-211).
In practice, the study is carried out according to the method described by Selye, H. and Szabo, S., Nature, 1973, 244:458-459 on groups of male Sprague Dawley rats weighing 200 g on average, to which a solution of cysteamine hydrochloride is administered by subcutaneous injection on the basis of 400 mg/kg, […] the ulcerogenic agent. Eighteen hours later, the rats are sacrificed by elongation, and the stomach and duodenum are removed, rinsed with physiological solution and pinned onto a card. The presence of ulcers of the antropyloroduodenal region is looked for, and their area, expressed in mm^2, is evaluated by multiplying the two principal perpendicular axes of the lesion. Statistical analysis of the results is carried out using Student's test for the ulcerated areas in comparison with a control group. The results are presented in Table 2, and expressed as an ED50 of ulceration scores, which are the effective doses of product in (mg/kg) for a 50% inhibition of the cysteamine-induced ulcers.

dopamine D2 receptors = target: T2, dopamine D2 receptors (Rattus norvegicus, UniProt P61169); experiment: Dopamine D2 binding test with [3H]spiroperidol (Table 1.A)
T2 construct: from tissue; guinea pig by b443
Description: as §1
(§7) Binding with the ligand [^3 H]-DTG is carried out according to the technique of Weber, E. M. et al., 1986, Proc. Natl. Acad. Sci., 83:8784-8788, and binding with the ligand [^3 H]spiroperidol is carried out according to the technique of Fields, J. Z., Reisine, R. D. and Yamamura, H. 1., Brain Res., 136,578 (1977).
as §3, §4, §5

sigma receptors [6] = target: T3, sigma receptors (Cavia porcellus, UniProt Q60492); experiment: Sigma binding test with (+)-[3H]-SKF10,047, guinea pig brain membranes (Table 1.A); conditions: read-out: SKF10047 guinea pig IC50
T3 construct: from tissue; host or cells: guinea pig brain membranes
Description: as §1, §2, §3, §4, §5

[7] = target: phencyclidine (PCP) receptors; experiment: PCP receptor binding test with [3H]-TCP (Table 1.A); conditions: guinea pig
Description: as §1, §2, §3, §4, §5

rats = conditions: state of the art; cited from earlier work
[8] = state of the art; cited from earlier work
sigma receptors [9] = experiment: Sigma binding test with [3H]-DTG (Table 1.A); conditions: guinea pig
Description: as §1, §7, §3, §4, §5

[10] = system: phencyclidine (PCP) receptors; conditions: state of the art; cited from earlier work
[11] = Stability remark on isolated product; assay type: physicochemical; conditions: free base, after Stage 3

T2 sequence (P61169 whole entry): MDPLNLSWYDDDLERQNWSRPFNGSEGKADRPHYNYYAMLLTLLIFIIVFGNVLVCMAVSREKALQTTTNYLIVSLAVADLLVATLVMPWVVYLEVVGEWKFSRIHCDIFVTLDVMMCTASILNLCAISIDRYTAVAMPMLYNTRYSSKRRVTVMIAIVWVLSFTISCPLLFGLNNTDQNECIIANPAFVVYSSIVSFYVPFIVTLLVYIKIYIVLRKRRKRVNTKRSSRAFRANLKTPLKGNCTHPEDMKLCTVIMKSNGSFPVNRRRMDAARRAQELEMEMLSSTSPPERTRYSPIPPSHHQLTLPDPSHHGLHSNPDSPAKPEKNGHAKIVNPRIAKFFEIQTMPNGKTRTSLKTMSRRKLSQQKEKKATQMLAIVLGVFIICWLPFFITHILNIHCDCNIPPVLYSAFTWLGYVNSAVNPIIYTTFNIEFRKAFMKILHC
T3 sequence (Q60492 whole entry): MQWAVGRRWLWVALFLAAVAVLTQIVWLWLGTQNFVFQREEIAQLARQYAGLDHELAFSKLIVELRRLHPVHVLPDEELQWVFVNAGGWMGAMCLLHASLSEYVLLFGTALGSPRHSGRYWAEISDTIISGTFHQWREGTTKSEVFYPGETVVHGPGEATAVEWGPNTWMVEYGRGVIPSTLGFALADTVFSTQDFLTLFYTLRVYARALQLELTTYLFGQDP
T1 sequence (Q9R0C9 whole entry): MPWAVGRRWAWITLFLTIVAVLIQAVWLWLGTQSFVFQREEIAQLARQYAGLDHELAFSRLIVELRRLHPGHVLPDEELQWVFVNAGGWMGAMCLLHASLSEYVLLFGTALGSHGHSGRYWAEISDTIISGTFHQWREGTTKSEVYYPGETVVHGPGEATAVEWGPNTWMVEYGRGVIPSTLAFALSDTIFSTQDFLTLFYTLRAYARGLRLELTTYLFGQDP

CN(CCC1CCc2ccccc2C1=O)CC1CCCCC1 (centres unmarked) [EXAMPLE 5, 2-[2-[(N-Cyclohexylmethyl-N-Methyl)Amino]-Ethyl]-1-Oxo-1,2,3,4-Tetrahydronaphthalene Hydrochloride]
IC50 (sigma receptors [1]): 0.0082 µM

CN(CCC1Cc2ccccc2C1=O)CC1CC1 (centres unmarked) [EXAMPLE 1, 2-[2-[(N-Cyclopropylmethyl-N-Methyl)Amino]Ethyl]-1-Oxo-1,2-Dihydroindene Hydrochloride]
IC50 (sigma receptors [1]): 0.0107 µM

O=C(CCCN1CCC(O)(c2ccc(Cl)cc2)CC1)c1ccc(F)cc1 [Haloperidol, 4-[4-(p-chlorophenyl)-4-hydroxypiperidino]-4'-fluorobutyrophenone]
extrapyramidal disorders [2]: can induce extrapyramidal disorders of the cataleptic type
affinity for dopaminergic (D2) receptors [3]: strong affinity for dopaminergic D2 receptors

CN(CCC1COc2ccccc2C1=O)CC1CC1 (centres unmarked) [EXAMPLE 14, 3-[2-[(N-Cyclopropylmethyl-N-Methyl)Amino]-Ethyl]4-Chromanone Hydrchloride]
IC50 (sigma receptors [1]): 0.0137 µM
ED50 [4]: 3.5 mg/kg

COc1ccc2c(c1)CCC(CCN(C)CC1CCCCC1)C2=O (centres unmarked) [EXAMPLE 6, 2-[2-[(N-Cyclohexylmethyl-N-Methyl)Amino]-Ethyl]6-Methoxy-1-oxo-1,2,3,4-Tetrahydronaphthalene Hydrochloride]
IC50 (sigma receptors [1]): 0.008 µM

CN(CCC1CCc2ccccc2C1=O)CC1CCC1 (centres unmarked) [EXAMPLE 3, 2-[2-[(N-cyclobutylmethyl-N-methyl)amino]ethyl]-1-oxo-1,2,3,4-tetrahydronaphthalene]
IC50 (sigma receptors [1]): 0.0111 µM
ED50 ([5]; intraperitoneal route (ip)): 5.7 mg/kg
ED50 ([5]; oral route (po)): 8.6 mg/kg
IC50 (dopamine D2 receptors): 1.17 µM
IC50 (sigma receptors [6]): 0.00524 µM
ED50 [4]: 0.9 mg/kg
IC50 [7]: > 10 µM

Cc1ccccc1NC(=N)Nc1ccccc1C [DTG, 1,3-di-o-tolylguanidine]
symptoms in rats (rats): causes symptoms in rats similar to those of PCP
crossing the blood-brain barrier [8]: difficulty in crossing the blood-brain barrier

CN(CCC1CCc2ccccc2C1=O)CC1CC1 (centres unmarked) [EXAMPLE 2, 2-[2-[(N-Cyclopropylmethyl-N-Methyl)Amino]Ethyl]-1-Oxo-1,2,3,4-Tetrahydronaphthalene Hydrochloride]
IC50 (sigma receptors [1]): 0.0194 µM
IC50 (sigma receptors [9]): 0.052 µM
IC50 (dopamine D2 receptors): > 10 µM
IC50 (sigma receptors [6]): 0.012 µM
ED50 [4]: 0.1 mg/kg
IC50 [7]: > 10 µM

C=CCN1CCC2(C)c3cc(O)ccc3CC1C2C (centres unmarked) [SKF 10047, N-allylnormetazocine]
affinity for phencyclidine (PCP) receptors [10]: strong affinity for phencyclidine (PCP) receptors

CCCN(CCC1CCc2ccccc2C1=O)CC1CC1 (centres unmarked) [EXAMPLE 9, 2-[2-[(N-cyclopropylmethyl-N-propyl)amino]ethyl]-1-oxo-1,2,3,4-tetrahydronaphthalene]
IC50 (sigma receptors [1]): 0.0104 µM

C=CCN(C)CCC1CCc2ccccc2C1=O (centres unmarked) [EXAMPLE 17, 2-[2-[(N-Allyl-N-Methyl)Amino]Ethyl]-1-Oxo-1,2,3,4-Tetrahydronaphthalene Hydrochloride]
IC50 (sigma receptors [1]): 0.0133 µM

CN(CCC1COc2ccccc2C1=O)CC1CCCCC1 (centres unmarked) [EXAMPLE 15, 3-[2-[(N-cyclohexylmethyl-N-methyl)amino]ethyl]-4-chromanone]
IC50 (sigma receptors [1]): 0.0057 µM

CN(CCC1COc2ccc(F)cc2C1=O)CC1CCCCC1 (centres unmarked) [EXAMPLE 16, 3-[2-[(N-Cyclohexylmethyl-N-Methyl)Amino]-Ethyl]-6-Fluoro-4-Chromanone Hydrochloride]
IC50 (sigma receptors [1]): 0.0062 µM

CN(CCC1CCc2ccccc2C12OCCO2)CC1CC1 (centres unmarked) [EXAMPLE 12, 2-[2-[(N-cyclopropylmethyl-N-methyl)amino]ethyl]-1-[spiro(cyclodioxyethyl)]-1,2,3,4-tetrahydro naphhtalene]
IC50 (sigma receptors [1]): 0.0305 µM
ED50 ([5]; intraperitoneal route (ip)): 11.6 mg/kg
ED50 [4]: 1.7 mg/kg

CN(CCC1CCCc2ccccc2C1=O)CC1CCCCC1 (centres unmarked) [EXAMPLE 11, 2-[2-[(N-Cyclohexylmethyl-N-Methyl)Amino]-Ethyl]-1-Benzosuberone Hydrochloride]
IC50 (sigma receptors [1]): 0.0066 µM

CCCN1CCC[C@H](c2cccc(O)c2)C1 [(+)-3-PPP, (+)-3-(3-hydroxyphenyl)-N-(1-propyl)piperidine]
affinity for dopaminergic (D2) receptors [3]: strong affinity for dopaminergic (D2) receptors

C[C@H]1[C@H]2Cc3ccc(O)cc3[C@]1(C)CCN2CC1CC1 [cyclazocine]
affinity for phencyclidine (PCP) receptors [10]: strong affinity for phencyclidine (PCP) receptors

CN(CCC1CCc2ccccc2C1=NO)CC1CCC1 (centres unmarked) [EXAMPLE 13, 2-[2-[(N-Cyclobutylmethyl-N-Methyl)Amino]Ethyl]-1-Hydroxyimino-1,2,3,4Tetrahydronaphthalene]
IC50 (sigma receptors [1]): 0.0077 µM

O=C1c2ccccc2CCC1CCNC1CC1 (centres unmarked) [EXAMPLE 7, 2-[2-(N-Cyclopropylamino)Ethyl]-1-Oxo-1,2,3,4-Tetrahydronaphthalene]
stability [11]: unstable

CN(CCC1CC1)CCC1CCc2ccccc2C1=O (centres unmarked) [EXAMPLE 4, 2-[2-[(N-Cyclopropylethyl-N-Methyl)Amino]Ethyl]-1-oxo-1,2,3,4-Tetrahydronaphthalene Hydrochloride]
IC50 (sigma receptors [1]): 0.0106 µM
IC50 (sigma receptors [9]): 0.056 µM
ED50 ([5]; oral route (po)): 15.6 mg/kg
IC50 (dopamine D2 receptors): 1.91 µM
IC50 (sigma receptors [6]): 0.00283 µM
ED50 [4]: 1 mg/kg
IC50 [7]: > 10 µM

CN(CCC1CCCc2ccccc2C1=O)CC1CC1 (centres unmarked) [EXAMPLE 10, 2-[2-[(N-Cyclopropylmethyl-N-Methyl)Amino]Ethyl]-1-Benzosuberone Hydrochloride]
IC50 (sigma receptors [1]): 0.0057 µM
ED50 [4]: 1.6 mg/kg
